Source: publication PMC11671014 (PLOS Pathogens, 2024)
Entries after “also recorded” stand apart in the source; their conditions may differ.

Key:
[1] = biological target: T1, UAE (ubiquitin activating enzyme) (Homo sapiens, UniProt P22314); assay: UAE E1-E2 transthiolation HTRF assay; format: biochemical
T1 sequence (P22314 1-1058): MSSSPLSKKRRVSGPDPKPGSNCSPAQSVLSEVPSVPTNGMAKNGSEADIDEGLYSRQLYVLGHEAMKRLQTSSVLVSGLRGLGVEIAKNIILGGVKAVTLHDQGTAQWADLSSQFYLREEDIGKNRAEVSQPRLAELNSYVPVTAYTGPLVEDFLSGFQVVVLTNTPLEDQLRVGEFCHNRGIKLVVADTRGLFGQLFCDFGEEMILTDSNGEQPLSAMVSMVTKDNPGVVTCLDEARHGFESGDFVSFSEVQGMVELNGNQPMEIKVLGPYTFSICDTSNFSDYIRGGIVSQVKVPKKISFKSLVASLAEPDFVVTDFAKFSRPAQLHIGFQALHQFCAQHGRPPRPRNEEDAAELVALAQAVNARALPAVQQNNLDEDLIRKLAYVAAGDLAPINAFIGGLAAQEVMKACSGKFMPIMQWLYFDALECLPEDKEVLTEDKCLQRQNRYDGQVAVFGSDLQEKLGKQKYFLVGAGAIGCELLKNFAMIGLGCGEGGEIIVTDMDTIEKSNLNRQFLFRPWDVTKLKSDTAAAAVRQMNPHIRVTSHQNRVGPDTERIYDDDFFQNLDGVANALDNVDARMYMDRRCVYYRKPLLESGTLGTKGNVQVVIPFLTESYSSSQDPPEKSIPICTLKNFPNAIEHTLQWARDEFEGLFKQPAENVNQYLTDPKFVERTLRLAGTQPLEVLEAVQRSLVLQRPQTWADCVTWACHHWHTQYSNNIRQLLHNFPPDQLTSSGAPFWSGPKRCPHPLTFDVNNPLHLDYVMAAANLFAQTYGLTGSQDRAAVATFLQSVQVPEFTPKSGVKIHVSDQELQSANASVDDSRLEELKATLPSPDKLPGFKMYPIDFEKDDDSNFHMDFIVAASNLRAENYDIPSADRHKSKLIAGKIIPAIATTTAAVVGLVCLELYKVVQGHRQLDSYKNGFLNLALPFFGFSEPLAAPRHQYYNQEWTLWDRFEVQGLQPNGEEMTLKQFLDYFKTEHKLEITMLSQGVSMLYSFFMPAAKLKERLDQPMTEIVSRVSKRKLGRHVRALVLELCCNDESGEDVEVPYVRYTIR
Text: (§1) An Homogeneous Time-Resolved Fluorescence (HTRF) enzyme assay was employed to evaluate compound activity against ATG7 as previously described. In this assay, a Flag-tagged ATG8 homolog (GABA type A receptor-associated protein; GABARAP) is activated by ATG7 and then transthiolated to a GST-tagged E2 (ATG3). The product of the enzyme reaction, Flag-GABARAP-ATG3-GST, is quantified by measuring FRET between Europium-Cryptate labelled monoclonal anti-Flag M2 (FLAG M2-Eu cryptate; Revvity, Cat# 61FG2KLB) and […] (Anti-GST IgG conjugated to SureLight-Allophycocyanin) (Revvity, Cat# AD0059G)). The activation and transthiolation of ubiquitin by UAE, activation and transthiolation of NEDD8 by NAE and activation and transthiolation of SUMO by SAE were all assayed in a similar fashion with appropriately tagged ubiquitin-like proteins and E2 conjugating enzymes as described.

[2] = tested on: P. falciparum (3D7, ring stage) cultures; assay: P. falciparum 3D7 72-h growth inhibition, lactate dehydrogenase (PfLDH) assay; format: cell-based; conditions: Plasmodium falciparum, 72 h exposure
Protocol: Routine analyses of antimalarial activity against P. falciparum 3D7 was tested by TCGLS (Kolkata, India) using the lactate dehydrogenase (PfLDH) growth inhibition assay as previously described. […] P. falciparum strain (3D7) was obtained from BEI Resources.

[3] = biological target: T2, NAE (NEDD8-activating enzyme) (Homo sapiens, UniProt Q8TBC4); assay: NAE E1-E2 transthiolation HTRF assay; format: biochemical
T2 sequence (Q8TBC4 1-463): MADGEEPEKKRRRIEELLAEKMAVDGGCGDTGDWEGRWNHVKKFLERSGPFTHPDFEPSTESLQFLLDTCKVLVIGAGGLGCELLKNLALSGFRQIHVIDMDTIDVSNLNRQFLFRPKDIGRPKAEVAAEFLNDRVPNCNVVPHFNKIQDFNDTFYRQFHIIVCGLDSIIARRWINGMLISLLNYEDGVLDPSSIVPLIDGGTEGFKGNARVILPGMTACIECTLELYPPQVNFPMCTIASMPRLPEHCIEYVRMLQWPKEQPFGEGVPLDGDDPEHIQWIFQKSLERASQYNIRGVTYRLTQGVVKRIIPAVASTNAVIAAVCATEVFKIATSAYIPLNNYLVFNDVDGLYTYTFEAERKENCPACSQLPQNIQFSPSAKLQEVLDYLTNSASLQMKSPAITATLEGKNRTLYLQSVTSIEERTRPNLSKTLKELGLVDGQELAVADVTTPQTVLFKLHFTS
T2 sequence (Q13564 1-534 partner): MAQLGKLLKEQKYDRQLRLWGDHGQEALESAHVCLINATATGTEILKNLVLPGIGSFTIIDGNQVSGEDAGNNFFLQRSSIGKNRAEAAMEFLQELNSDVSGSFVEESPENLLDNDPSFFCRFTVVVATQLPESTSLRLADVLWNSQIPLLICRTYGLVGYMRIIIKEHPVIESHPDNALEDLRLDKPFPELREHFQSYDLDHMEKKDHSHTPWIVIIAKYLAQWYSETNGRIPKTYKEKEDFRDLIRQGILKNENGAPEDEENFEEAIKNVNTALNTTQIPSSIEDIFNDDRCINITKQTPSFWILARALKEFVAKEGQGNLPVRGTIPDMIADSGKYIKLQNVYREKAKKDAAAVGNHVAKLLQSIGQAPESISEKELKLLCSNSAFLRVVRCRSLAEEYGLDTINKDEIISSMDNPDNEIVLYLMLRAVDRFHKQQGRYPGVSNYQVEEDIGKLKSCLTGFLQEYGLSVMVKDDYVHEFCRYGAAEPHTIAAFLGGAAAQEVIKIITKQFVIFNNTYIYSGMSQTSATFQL
Text: as §1

HepG2 cells = assay: HepG2 72-h viability, CellTiter-Glo; format: cell-based; conditions: Homo sapiens, 72 h exposure
Protocol: The HepG2 (Human hepatocyte carcinoma) cell line was procured from ATCC (American Type Culture Collection, Manassas, USA; HB-8065) and viability assessed using CellTiter-Glo luminescent cell viability assay reagents (Promega). For the assay, 2,000 cells/well were plated in 384-well plates 24 h prior to the experiment and incubated at 37°C in a CO2 incubator. The medium was removed; and cells were treated with fresh medium containing either vehicle (0.5% DMSO) or serially diluted compounds or doxorubicin (1.3 nM to 25 μM) in a final volume of 50 μL/well and further incubated for 72 h at 37°C in a CO2 incubator. […] Following incubation, 25 μL of medium was discarded and 25 μl of CellTiter-Glo reagent was added to each well and the plate was kept on a plate shaker for 15 min at 25°C with shaking at 300 rpm. Luminescence signals were measured in a PHERAstar FSX reader (BMG LABTECH).

SMILES	IC50 [1]	IC50 [2]	IC50 [3]	IC50 (HepG2 cells)	activity against UAE (in words) ([1]; human UAE in vitro)	activity against NAE (in words) [3]
Nc1ncnc2c1c(C(F)(F)F)nn2[C@@H]1O[C@H](COS(N)(=O)=O)[C@@H](O)[C@H]1O [ML107]	22.9 ± 0.7 µM	0.0042 ± 0.0005 µM	75.3 ± 0.8 µM	2.52 µM	–	–
Nc1ncnc2c1c(Oc1ccccc1)nn2[C@@H]1O[C@H](COS(N)(=O)=O)[C@@H](O)[C@H]1O [ML470]	> 100 µM	0.0448 ± 0.0082 µM	> 100 µM	> 50 µM	–	–
CC(C)c1nn([C@@H]2O[C@H](COS(N)(=O)=O)[C@@H](O)[C@H]2O)c2ncnc(N)c12 [ML471, ((2R,3S,4R,5R)-5-(4-amino-3-isopropyl-1H-pyrazolo[3,4-d]pyrimidin-1-yl)-3,4-dihydroxytetrahydrofuran-2-yl)methyl sulfamate]	85.7 ± 6.5 µM	0.0015 ± 0.0002 µM	> 100 µM	> 50 µM	no inhibitory activity; also recorded: no or very little activity	no or very little activity
CCOc1nn([C@@H]2O[C@H](COS(N)(=O)=O)[C@@H](O)[C@H]2O)c2ncnc(N)c12 [ML676]	73.4 ± 3.5 µM	0.0028 ± 0.0002 µM	66.6 ± 1.1 µM	22.4 µM	–	–
CCc1nn([C@@H]2O[C@H](COS(N)(=O)=O)[C@@H](O)[C@H]2O)c2ncnc(N)c12 [ML681]	8.7 ± 0.6 µM	0.0034 ± 0.0001 µM	35.3 ± 0.8 µM	7.53 µM	–	–
CC(C)Oc1nn([C@@H]2O[C@H](COS(N)(=O)=O)[C@@H](O)[C@H]2O)c2ncnc(N)c12 [ML723]	> 100 µM	0.0025 ± 0.0006 µM	> 100 µM	> 50 µM	–	–
Nc1ncnc2c1c(OC(F)F)nn2[C@@H]1O[C@H](COS(N)(=O)=O)[C@@H](O)[C@H]1O [ML901]	5.39 ± 0.16 µM	0.0028 ± 0.0002 µM	28 ± 0.6 µM	4.65 µM	–	–
